From BindingDB's records for doi:10.1021/jm048993p (Merck Research Laboratories, 2005) come the findings set out here.

For this test, the target named is Peroxisome proliferator-activated receptor alpha (Mesocricetus auratus). The experiment in a line: Agonist activity against hamster Peroxisome proliferator activated receptor alpha.

As usually defined, the EC50 is the concentration needed to bring the measured effect to its halfway point.

`CCCc1cc2c(C(F)(F)F)noc2c(CCC)c1OC(C)(C)C(=O)O` [2-(5,7-Dipropyl-3-trifluoromethyl-benzo[d]isoxazol-6-yloxy)-2-methyl-propionic acid]: the EC50 was 460 nM.
